Data reported in PMC6747015, “Structure–function study of a novel inhibitor of the casein kinase 1 family in Arabidopsis thaliana” (Plant Direct, 2019).

Assays:
Kinase AT4G08800 = assay: AMI‐329 bead binding with AMI‐331 competitor, kinase AT4G08800; parameters: species or system Arabidopsis thaliana
Experimental: (§1) Screening for proteins bound to AMI‐329 beads was done by a method similar to what has previously been described (Uehara et al., 2019). Briefly, two‐week‐old seedlings grown under LD conditions were harvested at time points ZT2, ZT6, ZT9, and ZT17, and stored at −80°C. Proteins from the frozen plant samples were incubated with 0, 5, or 50 µM of AMI‐331 at 4°C for 30 min with rotary mixing. Two technical replicates were used for each experiment. PBS‐washed AMI‐329 beads were added to the protein samples and gently rotated at 4°C for 1 hr. AMI‐329 bead resins were washed with bead buffer (Uehara et al., 2019) six times. The washed resins were suspended in SDS sample buffer and boiled for 8 min. Protein samples were in‐gel‐digested as previously described (Uehara et al., 2019). Peptides were analyzed with a Q Exactive hybrid quadrupole‐orbitrap mass spectrometer (Thermo Fisher Scientific), as described previously (Uehara et al., 2019). […]
(§2) However, another possible mechanism for the strong AMI‐331 biological activity in vivo is that it targets proteins other than the CK1 family for period lengthening. […] It is noteworthy that kinase AT4G08800 is very similar to the CKL family, but the ATP‐binding pocket of mammalian CK1 as determined by its crystal structure (Shinohara et al., 2017) was absent from AT4G08800, as shown in an Araport 11 model (https://www.araport.org). […]

LUP1 (AT1G78970) = target: T1, LUP1 (AT1G78970) (Arabidopsis thaliana, UniProt Q9C5M3); assay: AMI‐329 bead binding with AMI‐331 competitor, LUP1
T1 construct: from tissue; host or cells: Arabidopsis seedlings, two weeks old
T1 sequence (Q9C5M3 whole entry): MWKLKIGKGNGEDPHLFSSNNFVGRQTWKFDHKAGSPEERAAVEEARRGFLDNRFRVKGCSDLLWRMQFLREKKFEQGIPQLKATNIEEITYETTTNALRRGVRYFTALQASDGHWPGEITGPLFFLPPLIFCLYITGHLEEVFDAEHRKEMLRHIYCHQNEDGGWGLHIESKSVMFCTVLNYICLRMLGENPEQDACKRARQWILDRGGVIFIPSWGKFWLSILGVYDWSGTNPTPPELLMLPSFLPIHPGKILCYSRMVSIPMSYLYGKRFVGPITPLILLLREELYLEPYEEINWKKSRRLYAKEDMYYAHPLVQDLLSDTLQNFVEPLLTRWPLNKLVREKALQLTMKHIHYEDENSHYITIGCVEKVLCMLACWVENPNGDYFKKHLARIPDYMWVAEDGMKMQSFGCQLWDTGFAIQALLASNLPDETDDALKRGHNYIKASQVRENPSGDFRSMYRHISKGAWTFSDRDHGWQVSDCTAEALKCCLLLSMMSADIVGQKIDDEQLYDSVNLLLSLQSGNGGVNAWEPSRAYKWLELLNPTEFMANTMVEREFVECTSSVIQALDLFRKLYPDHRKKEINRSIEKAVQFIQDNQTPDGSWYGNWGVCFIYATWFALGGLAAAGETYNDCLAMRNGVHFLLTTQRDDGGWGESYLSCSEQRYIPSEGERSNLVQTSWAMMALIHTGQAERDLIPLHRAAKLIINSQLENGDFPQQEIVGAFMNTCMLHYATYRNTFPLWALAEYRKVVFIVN
Experimental: as §1, §2

NRPB3 (AT2G15430) = target: T2, NRPB3 (AT2G15430) (Arabidopsis thaliana, UniProt Q39211); assay: AMI‐329 bead binding with AMI‐331 competitor, NRPB3
T2 construct: from tissue; host or cells: Arabidopsis seedlings, two weeks old
T2 sequence (Q39211 whole entry): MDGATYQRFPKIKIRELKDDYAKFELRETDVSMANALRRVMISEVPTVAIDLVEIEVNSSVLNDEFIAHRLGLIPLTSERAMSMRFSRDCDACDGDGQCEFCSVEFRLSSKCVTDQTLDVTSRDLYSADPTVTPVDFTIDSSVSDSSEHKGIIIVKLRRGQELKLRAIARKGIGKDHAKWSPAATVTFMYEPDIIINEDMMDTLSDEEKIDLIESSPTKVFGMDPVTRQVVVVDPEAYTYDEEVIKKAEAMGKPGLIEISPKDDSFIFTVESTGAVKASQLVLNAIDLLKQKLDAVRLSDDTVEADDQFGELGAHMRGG
Experimental: as §1, §2

CKL8 (AT5G43320) = target: T3, CKL8 (AT5G43320) (Arabidopsis thaliana, UniProt Q9LSX4); assay: AMI‐329 bead binding with AMI‐331 competitor, CKL8
T3 construct: from tissue; host or cells: Arabidopsis seedlings, two weeks old
T3 sequence (Q9LSX4 whole entry): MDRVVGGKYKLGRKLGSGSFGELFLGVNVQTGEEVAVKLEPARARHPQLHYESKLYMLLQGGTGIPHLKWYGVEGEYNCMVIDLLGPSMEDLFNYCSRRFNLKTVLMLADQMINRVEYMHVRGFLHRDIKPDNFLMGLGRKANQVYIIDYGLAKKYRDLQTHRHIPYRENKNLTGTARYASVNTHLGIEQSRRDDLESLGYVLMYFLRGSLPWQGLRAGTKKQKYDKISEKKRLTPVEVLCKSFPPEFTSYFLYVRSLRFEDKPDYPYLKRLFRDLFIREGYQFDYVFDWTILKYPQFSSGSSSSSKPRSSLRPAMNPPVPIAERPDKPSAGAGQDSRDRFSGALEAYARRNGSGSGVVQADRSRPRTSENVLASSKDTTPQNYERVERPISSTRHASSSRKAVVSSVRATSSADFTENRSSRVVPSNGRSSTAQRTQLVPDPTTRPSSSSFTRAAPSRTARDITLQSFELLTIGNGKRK
Experimental: as §1, §2

PRR5 and TOC1 = PRR5 and TOC1 fusion protein accumulation by Western blotting; format: in vivo, Arabidopsis
Experimental: Four‐day‐old seedlings grown under 12‐hr light/12‐hr dark (LD) conditions were transferred into a 96‐well plate with a dropper. Seedlings were treated with 20 µl of MS liquid containing 2% sucrose and AMI‐331 at 2, 10, or 50 µM with a final concentration of 5% (v/v) DMSO. As a control experiment, MS containing 2% sucrose and 5% DMSO was used to treat the seedlings. Seedlings were kept under constant light (L) or constant dark (D) for 24 hr, harvested, and kept frozen until proteins were extracted. Frozen samples were crushed with zirconia beads (Tomy ZB‐50) in a Tissue Lyser II (Qiagen). Detection of PRR5‐ and TOC1‐fusion proteins was performed using a 10%–20% gradient acrylamide gel (198‐15041, Wako) as previously described (Nakamichi et al., 2012). Anti‐FLAG antibody (F3165, Sigma) and anti‐VP antibody (ab4808, Abcam) were used to detect FLAG‐fusion and VP‐fusion proteins, respectively.
It had previously been shown that CKL4 phosphorylates PSEUDO‐RESPONSE REGULATOR 5 (PRR5), a clock‐associated transcription factor in vitro, and that treatment with the CK1 inhibitor PHA767491 results in over‐accumulation of PRR5 in vivo (Uehara et al., 2019). As a further test of whether the period‐lengthening activity of AMI‐331 is related to the inhibition of CK1 in vivo, we measured the amounts of PRR5 in plants treated with AMI‐331. Seedlings expressing fusion protein PRR5‐FLAG under control of the cauliflower mosaic virus 35S promoter (35Spro:PRR5‐FLAG) were grown under constant light conditions for 4 days, treated with AMI‐331, and kept constantly in the dark for one day. In control experiments (i.e., without AMI‐331), PRR5‐FLAG protein amounts were lower under dark compared to light conditions, due to ZTL‐dependent degradation, as described in previously (Fujiwara et al., 2008; Kiba, Henriques, Sakakibara, & Chua, 2007). […] Since PHA767491 treatment also attenuates degradation of TIMING OF CAB EXPRESSION 1 (TOC1, also called as PRR1) under dark conditions (Uehara et al., 2019), we tested whether AMI‐331 affects TOC1 protein accumulation in vivo. TOC1 amounts were higher in AMI‐331‐treated plants (Figures 3c, S2).

With `C#CCn1c2c(c(Br)c1-c1ccncc1)C(=O)NCC2.Cl` [AMI‐331] the “Spectra (PSMs) AMI‐329 beads bound” value (Kinase AT4G08800; competitor AMI‐331 5 µM) was 0 PSMs, the “Spectra (PSMs) AMI‐329 beads bound” value (Kinase AT4G08800; competitor AMI‐331 50 µM) was 0 PSMs and the “Spectra (PSMs) AMI‐329 beads bound” value (LUP1 (AT1G78970); competitor AMI‐331 5 µM) was 0 PSMs. The “Spectra (PSMs) AMI‐329 beads bound” value (LUP1 (AT1G78970); competitor AMI‐331 50 µM) was 0 PSMs, the “Spectra (PSMs) AMI‐329 beads bound” value (NRPB3 (AT2G15430); competitor AMI‐331 5 µM) was 0 PSMs and the “Spectra (PSMs) AMI‐329 beads bound” value (NRPB3 (AT2G15430); competitor AMI‐331 50 µM) was 0 PSMs. The “Spectra (PSMs) AMI‐329 beads bound” value (CKL8 (AT5G43320); competitor AMI‐331 5 µM) was 0 PSMs, the “Spectra (PSMs) AMI‐329 beads bound” value (CKL8 (AT5G43320); competitor AMI‐331 50 µM) was 0 PSMs and the “PRR5‐FLAG protein amount” value (PRR5 and TOC1; 35Spro:PRR5‐FLAG seedlings, dark conditions) was “over‐accumulation of PRR5‐FLAG”. The “PRR5‐VP protein amount” value (PRR5 and TOC1; 35Spro:PRR5‐VP seedlings, dose‐dependent) was “accumulation of PRR5‐VP”, the TOC1 protein amount (PRR5 and TOC1; 35Spro:TOC1‐VP seedlings) was “higher” and the “Effective concentration for increasing PRR5 and TOC1, times lower than required for PHA767491” value (PRR5 and TOC1; in vivo) was 10–50 times. For the same compound, the “Effective concentrations for PRR5 or TOC1 accumulation” value (PRR5 and TOC1; seedlings, 24 hr in the dark) was 10 to 50 µM.
